What all share (type): cell-based
The test system of assay [1] is primary adult skin fibroblasts. The assay is described as follows: Protection of fibroblasts against UV-C exposure. To be noted: 37° C., 8.6 mM; for cell protection against UV (in words): UV-C 2 hours; for live cells still observed: UV-C (254 nm) for 2 hours. The procedure:
In the following experiments, the studies were conducted at 37° C. on adult primary skin fibroblasts. The cells were exposed to UV-C irradiation for 2 hours in the presence of AAGP derivatives.

Another assay concerns HELA cells. Description: Survival of HELA cells subjected to UVC. To be noted: exposed to UVC; low concentrations; FIGS. 37, 38 and 39. The procedure: FIGS. 37, 38 and 39 are representations of the effects of the various derivatives on the survival of HELA cells subjected to UVC.
Studies were conducted on HELA cells, exposed to UVC, in the presence of the various synthesised compounds, at low concentrations.

The subject of assay [2] is primary adult skin fibroblasts. The assay is described as follows: Preservation of fibroblasts at low temperature (−3° C.). To be noted: 8.6 mM. Here is the method:
The purpose of the following experiment is to test the preservation activity of AAGP 11 compounds at low temperatures.
The cells are thus incubated at −3° C. in the presence of the compound AAGP 11.

This note sets out measurements from patent publication US20090311203A1, “GEM-DIFLUORIDE C-GLYCOPEPTIDE COMPOUNDS, THEIR PREPARATION AND USE PARTICULARLY FOR PRESERVATION OF BIOLOGICAL MATERIALS” (INSTITUT NATIONAL DES SCIENCES APPLIQUEES DE ROUEN (INSA), priority 2006, published 2009).

Several values for one entry are separate records, joined by “and”; a condition that tells them apart may be missing. Identical values can stand only once.

Regarding `COC(=O)[C@H](C)NC(=O)[C@H](CCCCNC(=O)C(F)(F)[C@]1(O)O[C@H](COCc2ccccc2)[C@H](OCc2ccccc2)[C@H](OCc2ccccc2)[C@H]1OCc1ccccc1)NC(=O)OCc1ccccc1` [AAGP-15], the “cell protection against UV (in words)” value in assay [1] is listed as “excellent protective properties”.
Regarding `C[C@H](NC(=O)[C@@H](N)CCCCNC(=O)C(F)(F)[C@]1(O)O[C@H](CO)[C@H](O)[C@H](O)[C@H]1O)C(=O)O` [Compound 11], the “survival of HELA cells compared to the control (in words)” value with HELA cells is “Very satisfactory results”. Moreover, the survival entry in assay [2] (after 6 days at −3° C., serum-free medium with 0.5 mM EDTA, control cells all dead) was “approximately 100% survival”. The “cell preservation activity at low temperature (in words)” value in assay [2] (−3° C., listed as AAGP-11) was “very high preservation activity and 11 displays a very high”. Further, the “cell protection against UV (in words)” value in assay [1] is listed as “high level of cell”. Besides, the “live cells still observed” value in assay [1] (after 72 hours, serum-free medium with 0.5 mM EDTA, all control cells dead) was 92% live cells are still; in assay [1] (after 4 days, almost all dead in the control) it was “After 4 days, 60% live”.
With `C[C@H](NC(=O)[C@@H](N)CCCCNC(=O)C(F)(F)[C@]1(O)O[C@H](CO)[C@H](O)[C@H](O)[C@H]1O)C(=O)O` [Compound 12], the “survival of HELA cells compared to the control (in words)” value in the assay on HELA cells is given as “inferior results compared to the control”.
For `C[C@H](NC(=O)[C@@H](N)CCCNC(=O)C(F)(F)[C@]1(O)O[C@H](CO)[C@H](O)[C@H](O)[C@H]1O)C(=O)O` [Compound 26], in the assay with HELA cells, the “survival of HELA cells compared to the control (in words)” value is “inferior results compared to the control”.
On the same count and under the same terms, under `N[C@@H](CCCCNC(=O)C(F)(F)[C@]1(O)O[C@H](CO)[C@H](O)[C@H](O)[C@H]1O)C(=O)NCC(=O)O` [Compound 30] stands “improve the survival of these cells compared to the control”.
